Where only a bound is given, the exact number is not on record here.

The values that follow come from US20160200733A1, “SUBSTITUTED THIENO[2,3-B]PYRIDINE-2-CARBOXAMIDE ANALOGS AS POSITIVE ALLOSTERIC MODULATORS OF THE MUSCARINIC ACETYLCHOLINE RECEPTOR M4” (Vanderbilt University, priority 2013, published 2016).

The target in the test is T1, mAChR hM4 (Homo sapiens, UniProt P08173).
T1 construct: expressed in transfected cells; host or cells: CHO-K1 (Chinese hamster ovary) cells
T1 sequence (P08173 1-479): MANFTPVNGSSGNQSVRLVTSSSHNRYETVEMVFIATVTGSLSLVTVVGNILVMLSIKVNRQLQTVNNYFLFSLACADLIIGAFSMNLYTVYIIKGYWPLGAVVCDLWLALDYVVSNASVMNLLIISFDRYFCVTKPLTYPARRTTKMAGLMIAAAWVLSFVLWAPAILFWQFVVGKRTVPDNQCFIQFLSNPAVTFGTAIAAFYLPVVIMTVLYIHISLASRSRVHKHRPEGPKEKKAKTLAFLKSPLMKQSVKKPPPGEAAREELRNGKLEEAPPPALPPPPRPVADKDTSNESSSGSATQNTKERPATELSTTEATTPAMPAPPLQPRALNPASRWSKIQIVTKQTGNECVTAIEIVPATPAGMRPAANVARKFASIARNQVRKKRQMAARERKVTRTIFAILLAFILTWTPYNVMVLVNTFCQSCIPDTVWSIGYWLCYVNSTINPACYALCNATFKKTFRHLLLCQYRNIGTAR
Nature of the test: mAChR M4 cell-based functional assay (calcium flux, potentiation of EC20 acetylcholine response). Conditions: mAChR hM4 cell-line; for EC50: >10,000 estimated for low potency compounds lacking a plateau; for Emax at 30 µM: % ACh maximum at 30 μM. The source says: In one aspect, the disclosed compounds potentiate the agonist response (e.g., acetylcholine) of mAChR M4. In a further aspect, the disclosed compounds increase mAChR M4 response to non-maximal concentrations of agonist in the presence of compound compared to the response to agonist in the absence of compound. […] For example, activation of mAChR M4 activity can be determined by measurement of calcium flux in response to agonist, e.g. acetylcholine, in cells loaded with a Ca^2+-sensitive fluorescent dye (e.g., Fluo-4). In a further aspect, the calcium flux was measured as an increase in fluorescent static ratio. In a yet further aspect, positive allosteric modulator activity was analyzed as a concentration-dependent increase in the EC20 acetylcholine response (i.e. the response of mAChR M4 at a concentration of acetylcholine that yields 20% of the maximal response).
In one aspect, the disclosed compounds activate mAChR M4 response as an increase in calcium fluorescence in mAChR M4-transfected CHO-K1 cells in the presence of the compound, compared to the response of equivalent CHO-K1 cells in the absence of the compound. […] In a further aspect, the mAChR M4-transfected CHO-K1 cells are transfected with human mAChR M4. In a still further aspect, the mAChR M4-transfected CHO-K1 cells are transfected with rat mAChR M4.
Substituted 3-aminothieno[2,3-c]pyridine-2-carboxamide analogs were synthesized as described above. Activity (EC50 and Emax) was determined in the mAChR M4 cell-based functional assay as described above, and the data are shown in Table II for assays conducted using mAChR hM4 cell-line. The compound number corresponds to the compound numbers used in Table I.

As for `COc1ccc(C2CC2NC(=O)c2sc3nc(C)c(Cl)c(C)c3c2C2CC2)cc1` (centres unmarked) [Compound 65, 5-chloro-3-cyclopropyl-N-(2-(4-methoxyphenyl)cyclopropyl)-4,6-dimethylthieno[2,3-b]pyridine-2-carboxamide], the EC50 – broadly, the concentration at which the effect is half-maximal – is greater than 10 µM.

Take `COc1ccc(CNC(=O)c2sc3nc(C)cc(C)c3c2-c2cnn(C)c2)cc1F` [Compound 66, N-(3-fluoro-4-methoxybenzyl)-4,6-dimethyl-3-(1-methyl-1H-pyrazol-4-yl)thieno[2,3-b]pyridine-2-carboxamide]: the EC50 was greater than 10 µM.

Consider `Cc1cc(C)c2c(-c3cnn(C)c3)c(C(=O)N3CCC(c4ccccc4)C3)sc2n1` (centres unmarked) [Compound 67, (4,6-dimethyl-3-(1-methyl-1H-pyrazol-4-yl)thieno[2,3-b]pyridin-2-yl)(3-phenylpyrrolidin-1-yl)methanone], for which the EC50 is greater than 10 µM.

Consider `COc1ccc(C2CC2NC(=O)c2sc3nc(C)cc(C)c3c2-c2cnn(C)c2)cc1` (centres unmarked) [Compound 68, N-(2-(4-methoxyphenyl)cyclopropyl)-4,6-dimethyl-3-(1-methyl-1H-pyrazol-4-yl)thieno[2,3-b]pyridine-2-carboxamide], for which the 50% effective concentration (EC50) was greater than 10 µM.

In the case of `COc1ccc(CNC(=O)c2sc3nc(C)c(Cl)c(C)c3c2C2CC2)cc1F` [Compound 69, 5-chloro-3-cyclopropyl-N-(3-fluoro-4-methoxybenzyl)-4,6-dimethylthieno[2,3-b]pyridine-2-carboxamide], the EC50 is greater than 10 µM.

Turning to `Cc1cc(C)c2c(-c3cnn(C)c3)c(C(=O)NCc3ccc4c(c3)CCO4)sc2n1` [Compound 70, N-((2,3-dihydrobenzofuran-5-yl)methyl)-4,6-dimethyl-3-(1-methyl-1H-pyrazol-4-yl)thieno[2,3-b]pyridine-2-carboxamide], the EC50 is greater than 10 µM.

On to `Cc1cc(C)c2c(-c3cnn(C)c3)c(C(=O)NCc3cnn(-c4ccccc4)c3)sc2n1` [Compound 71, 4,6-dimethyl-3-(1-methyl-1H-pyrazol-4-yl)-N-((1-phenyl-1H-pyrazol-4-yl)methyl)thieno[2,3-b]pyridine-2-carboxamide], for which the EC50 is greater than 10 µM.

Turning to `Cc1nc2sc(C(=O)N3CC(c4ccccc4)C3)c(C3CC3)c2c(C)c1Cl` [Compound 72, (5-chloro-3-cyclopropyl-4,6-dimethylthieno[2,3-b]pyridin-2-yl)(3-phenylazetidin-1-yl)methanone], the EC50 is greater than 10 µM.

In the case of `Cc1nc2sc(C(=O)NCc3cnn(-c4ccccc4)c3)c(C3CC3)c2c(C)c1Cl` [Compound 73, 5-chloro-3-cyclopropyl-4,6-dimethyl-N-((1-phenyl-1H-pyrazol-4-yl)methyl)thieno[2,3-b]pyridine-2-carboxamide], the EC50 was greater than 10 µM.

On to `Cc1cc(C)c2cc(C(=O)NC3COC3)sc2n1` [Compound 74, 4,6-dimethyl-N-(oxetan-3-yl)thieno[2,3-b]pyridine-2-carboxamide], for which the Emax (as a rule, the maximal effect, on the per cent scale that the assay sets) at 30 µM came out at 46% and the EC50 is greater than 10 µM.

On to `Cc1cc(C)c2cc(C(=O)NC3CN(c4cccnc4)C3)sc2n1` [Compound 75, 4,6-dimethyl-N-(1-(pyridin-3-yl)azetidin-3-yl)thieno[2,3-b]pyridine-2-carboxamide], for which the Emax at 30 µM is 67% and the EC50 is 1.2 µM.

Regarding `Cc1cc(C)c2cc(C(=O)NC3CN(c4ccc(C(F)(F)F)nc4)C3)sc2n1` [Compound 76, 4,6-dimethyl-N-(1-(6-(trifluoromethyl)pyridin-3-yl)azetidin-3-yl)thieno[2,3-b]pyridine-2-carboxamide], the EC50 is greater than 10 µM.

Consider `Cc1cc(C)c2cc(C(=O)NCc3cnn(-c4ccccc4)c3)sc2n1` [Compound 77, 4,6-dimethyl-N-((1-phenyl-1H-pyrazol-4-yl)methyl)thieno[2,3-b]pyridine-2-carboxamide], for which the concentration for a half-maximal effect (EC50) is greater than 10 µM.

In the case of `Cc1cc(C)c2cc(C(=O)NCc3ccc(-c4cccnc4F)cc3)sc2n1` [Compound 78, N-(4-(2-fluoropyridin-3-yl)benzyl)-4,6-dimethylthieno[2,3-b]pyridine-2-carboxamide], the Emax at 30 µM was determined as 34% and the EC50 is greater than 10 µM.

With `Cc1cc(C)c2cc(C(=O)NCc3ccc(-c4ccnnc4)s3)sc2n1` [Compound 79, 4,6-dimethyl-N-((5-(pyridazin-4-yl)thiophen-2-yl)methyl)thieno[2,3-b]pyridine-2-carboxamide], the EC50 was greater than 10 µM.

For `Cc1cc(C)c2cc(C(=O)NCC3CCN(c4ccccc4)C3)sc2n1` (centres unmarked) [Compound 80, 4,6-dimethyl-N-((1-phenylpyrrolidin-3-yl)methyl)thieno[2,3-b]pyridine-2-carboxamide], the EC50 was greater than 10 µM.

Turning to `COc1ccc(C2CC2NC(=O)c2cc3c(C)cc(C)nc3s2)cc1` (centres unmarked) [Compound 81, N-(2-(4-methoxyphenyl)cyclopropyl)-4,6-dimethylthieno[2,3-b]pyridine-2-carboxamide], the Emax at 30 µM came out at 30% and the EC50 was 0.82 µM.

On to `Cc1cc(C)c2cc(C(=O)N3CC(c4ccccc4)C3)sc2n1` [Compound 82, (4,6-dimethylthieno[2,3-b]pyridin-2-yl)(3-phenylazetidin-1-yl)methanone], for which the Emax at 30 µM worked out at 34% and the EC50 is 2.4 µM.

With `Cc1cc(C)c2cc(C(=O)N3CCC(c4ccccc4)C3)sc2n1` (centres unmarked) [Compound 83, (4,6-dimethylthieno[2,3-b]pyridin-2-yl)(3-phenylpyrrolidin-1-yl)methanone], the EC50 is greater than 10 µM.

For the compound `COc1ccc(CNC(=O)c2cc3c(C)cc(C)nc3s2)cc1F` [Compound 84, N-(3-fluoro-4-methoxybenzyl)-4,6-dimethylthieno[2,3-b]pyridine-2-carboxamide], the Emax at 30 µM was 49% and the EC50 is 6.7 µM.

As for `Cc1cc(C)c2cc(C(=O)NCc3ccc(S(=O)(=O)C(F)(F)F)cc3)sc2n1` [Compound 85, 4,6-dimethyl-N-(4-((trifluoromethyl)sulfonyl)benzyl)thieno[2,3-b]pyridine-2-carboxamide], the EC50 was greater than 10 µM.

Consider `Cc1nc2sc(C(=O)N3CCC(c4ccccc4)C3)c(-c3cnn(C)c3)c2c(C)c1Cl` (centres unmarked) [Compound 86, (5-chloro-4,6-dimethyl-3-(1-methyl-1H-pyrazol-4-yl)thieno[2,3-b]pyridin-2-yl)(3-phenylpyrrolidin-1-yl)methanone], for which the EC50 was greater than 10 µM.

Regarding `Cc1nc2sc(C(=O)NC3CCC3)c(-c3cnn(C)c3)c2c(C)c1Cl` [Compound 87, 5-chloro-N-cyclobutyl-4,6-dimethyl-3-(1-methyl-1H-pyrazol-4-yl)thieno[2,3-b]pyridine-2-carboxamide], the EC50 is greater than 10 µM.

Take `Cc1nc2sc(C(=O)NC3CCCOC3)c(-c3cnn(C)c3)c2c(C)c1Cl` (centres unmarked) [Compound 88, 5-chloro-4,6-dimethyl-3-(1-methyl-1H-pyrazol-4-yl)-N-(tetrahydro-2H-pyran-3-yl)thieno[2,3-b]pyridine-2-carboxamide]: the EC50 is greater than 10 µM.

Consider `Cc1nc2sc(C(=O)NC3CCS(=O)(=O)C3)c(-c3cnn(C)c3)c2c(C)c1Cl` (centres unmarked) [Compound 89, 5-chloro-N-(1,1-dioxidotetrahydrothiophen-3-yl)-4,6-dimethyl-3-(1-methyl-1H-pyrazol-4-yl)thieno[2,3-b]pyridine-2-carboxamide], for which the EC50 was greater than 10 µM.

Regarding `Cc1nc2sc(C(=O)NC3CC3)c(-c3cnn(C)c3)c2c(C)c1Cl` [Compound 90, 5-chloro-N-cyclopropyl-4,6-dimethyl-3-(1-methyl-1H-pyrazol-4-yl)thieno[2,3-b]pyridine-2-carboxamide], the EC50 was greater than 10 µM.
